Converted amounts (≈) assume the structure as drawn. Values belong to the compound of their own block, whether it stands above or below them.
Experiments:
[1] = Plasma concentration-time data after PO dose of Example 2 in Beagle dogs; type: in vivo; conditions: dog, PO Example 2, all time points
Experimental: (§1) Systemic exposure of Example 2 and Intermediate 6 (Example 39 of Applicant's earlier application PCT/GB2021/050638 (WO2021/181122A1)) were assessed in male Sprague-Dawley rats and male Beagle dogs following oral (per os, PO) administration of Example 2. Plasma concentration-time data (mean values±standard deviation) are detailed in Tables 4 and 5.
(§2) Three male Sprague-Dawley rats (weighing 269-270 g) and three male Beagle dogs (weighing 7-10 kg), were administered a single dose of Example 2 via PO route, using the dose and vehicle specified in Table #. Following dosing, blood samples were taken at several time points (pre-dose, 5 min, 15 min, 30 min, 1 h, 2 h, 4 h, 8 h, 12 h and 24 h in both species, plus additional samples at 32 h and 48 h in dog) via serial bleeding of jugular vein (rat) or cephalic vein (dog), and centrifuged to separate plasma for quantitative bioanalysis of Example 2 and Intermediate 6 by LC-MS/MS.

[2] = Thermodynamic solubility in biorelevant media; type: physicochemical; conditions: thermodynamic from solid
Experimental: This experiment was designed to evaluate the thermodynamic solubility of Example 2 in various biorelevant media (Blank Fasted State Simulated Intestinal Fluid (FaSSIF) pH 6.5, FaSSIF pH 6.5 and simulated gastric fluid (SGF) without enzyme pH 1.2).
A 10 mM stock solution of Example 2 in dimethyl sulfoxide (DMSO) was prepared. From the 10 mM stock solution, a 1 mM intermediate solution of Example 2 in DMSO was prepared. A working solution of 1 μM of Example 2 was prepared by diluting the intermediate solution in mobile phase solution (methanol: 2 mM ammonium acetate containing suitable internal standard—carbamazepine). The working solution was serially diluted in mobile phase solution up to 8 linearity points to prepare standard solutions for plotting a calibration curve. The area for each standard solution was analyzed using LCMS/MS. The normalized area values were plotted vs. concentration to achieve a calibration equation.
Example 2 (1 mg) was added to 1 mL of each desired biorelevant media (SGF without enzyme pH 1.2, Blank FaSSIF pH 6.5 and FaSSIF pH 6.5) to achieve a theoretical concentration equivalent to 1 mg/mL.
The resulting solutions were then kept on RotoSpin (shaker) at 50 rpm for 4 hours at room temperature (25° C.). After the incubation period, the content was filtered through a 0.45 μm PVDF (hydrophilic) syringe filter and the filtrate was taken for quantification by LCMS/MS. The filtrate was diluted in mobile phase and subsequently, the area under the curve (AUC) was ascertained for diluted sample using LCMS/MS. From the AUC of test sample the corresponding concentration was calculated using 6 to 8 point linearity/calibration curve.

[3] = Plasma concentration-time data after PO dose of Example 2 in Sprague-Dawley rats; type: in vivo; conditions: rat, PO Example 2, all time points
Experimental: as §1, §2

[4] = Rat IV brain penetration (Kp,uu); type: in vivo, Sprague-Dawley rats; conditions: male, Sprague-Dawley, brain and plasma, IV 1 mg/kg, n = 3, unbound brain-to-plasma ratio
Experimental: Plasma and brain exposure were evaluated to assess the brain penetration of Intermediate 6 (Example 39 of WO2021/181122A1), following IV administration. Unbound brain-to-plasma ratio (Kp,uu) was calculated, as detailed in Table 7, following experimental determination of binding in rat plasma and brain homogenate.
For brain penetration assessment, male Sprague-Dawley rats (n=3) were administered a single 1 mg/kg dose (formulated in 10% DMAC+10% Solutol HS15+80% saline) via the IV route. After 10 min post-dose, animals were sacrificed and brains extracted, homogenised with 2 volumes (w/v) of 50 mM sodium phosphate buffer (pH 7.4), and analysed by LC-MS/MS. Blood samples were removed at the same time point via tail vein bleed, centrifuged and the plasma analysed by LC-MS/MS.
To permit calculation of unbound brain-to-plasma ratio (Kp,uu), test compound binding in rat plasma and brain homogenate was performed, using Rapid Equilibrium Dialysis (RED). […]
After incubation, the contents of each plasma/brain and buffer compartment were removed and mixed with equal volumes of control dialysed buffer or plasma/brain to maintain matrix similarity for analysis. […] Fraction unbound (Fu) in plasma and brain was calculated using the following formula, then used to correct total plasma and brain concentrations to derive the Kp,uu:

[5] = system: caffeine-induced hyperlocomotor response; test: Caffeine-induced locomotor activity in rat; type: in vivo, Sprague-Dawley rats; conditions: rat, 0.1, 0.3, 1 and 3 mg/kg PO, 60 min before caffeine 15 mg/kg s.c., 2 h activity
Description: Caffeine, a non-selective adenosine receptor antagonist, is a psychostimulant which increases rodent locomotor activity principally via blockade of A2A receptors (Br. J. Pharmacol., 2000, 129, 1465). These receptors are densely expressed on the terminals of GABAergic striatopallidal neurons in the indirect pathway of the basal ganglia, in which dopamine D2 receptors are co-expressed (J. Comp. Neurol., 1998, 401, 163; J. Comp. Neurol., 2001, 431, 331). Tonic activation of A2A receptors decreases the affinity of D2 receptors to dopamine and antagonism of A2A receptors facilitates dopaminergic signalling (Curr. Pharm. Des., 2008, 14, 1468). […] Male Sprague-Dawley rats (200-250 g) were housed in groups with a 12 h light/dark cycle (lights on at 07.00), at an ambient temperature of 21±2° C. and with standard pelleted diet and water ad libitum. Testing was carried out in the light phase. On the day of the experiment, animals were habituated to the locomotor cages for a 60-minute period. Subsequently, they were dosed with vehicle or Intermediate 6 (Example 39 of WO2021/181122A1) (0.1, 0.3, 1 and 3 mg/kg) by the oral route and returned to the appropriate locomotor cage. […] Locomotor activity was assessed for a 2 h period after caffeine treatment. […] SEMs were calculated from the residuals of the statistical model. […]

human GPR52 = target: T1, human GPR52 (Homo sapiens, UniProt Q9Y2T5); test: GPR52 Agonist Functional cAMP Assay; type: cell-based; conditions: HEKf cells infected with human GPR52 BacMam, cAMP HTRF, 30 min 37° C.; read-out: pEC50 average (converted)
T1 construct: expressed in transfected cells; host or cells: HEKf suspension cells, BacMam (modified baculovirus) transduction
T1 sequence (Q9Y2T5 whole entry): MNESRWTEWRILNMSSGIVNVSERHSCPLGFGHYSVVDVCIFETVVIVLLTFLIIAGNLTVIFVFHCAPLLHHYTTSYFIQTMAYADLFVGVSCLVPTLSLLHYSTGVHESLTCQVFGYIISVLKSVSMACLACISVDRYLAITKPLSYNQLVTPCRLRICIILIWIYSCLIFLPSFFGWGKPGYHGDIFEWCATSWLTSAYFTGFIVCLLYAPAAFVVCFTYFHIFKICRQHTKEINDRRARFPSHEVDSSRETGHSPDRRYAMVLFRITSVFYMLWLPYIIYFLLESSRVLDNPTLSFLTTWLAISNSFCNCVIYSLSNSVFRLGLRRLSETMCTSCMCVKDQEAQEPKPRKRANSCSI
Experimental: HEKf suspension cells were infected for 24 h with 0.1% v/v human GPR52 expressing BacMam virus, a modified baculovirus designed for mammalian gene expression. Following BacMam infection, cells were pelleted by centrifugation (335 g, 5 min), resuspended in cell freezing medium (Sigma) and frozen at −150° C. until required. On experiment day, 25 nL GPR52 compound dilutions, prepared in DMSO, were stamped onto proxiplates (PerkinElmer) by a LabCyte ECHO acoustic dispenser. Frozen cells were thawed and resuspended in assay stimulation buffer (Cisbio) containing 0.5 mM 3-iso-butyl-1-methylxanthine (IBMX, Sigma) to achieve a density of 2000 cells per well. 10 μl cells were added to assay plates using a Multidrop Combi Reagent Dispenser (ThermoFisher) before centrifugation (1 min). Cells were incubated with compounds at 37° C. for 30 min prior to addition of cAMP detection reagents (HiRange cAMP kit, Cisbio) which were prepared according to the manufacturer's instructions. Plates were shaken for 1 h at room temperature before reading on a PHERAstar FS plate reader (BMG Labtech) using standard HTRF settings. HTRF ratios were obtained by dividing the acceptor emissions (665 nm) by the donor emissions (620 nm) and multiplying by 10,000. […] Further pharmacokinetic data for Intermediate 6 is provided in Applicant's earlier application PCT/GB2021/050638 (see Example 39).

Rat IV pharmacokinetics = type: in vivo, Sprague-Dawley rats; conditions: male, Sprague-Dawley, plasma, IV 1 mg/kg, n = 3
Experimental: The pharmacokinetic profiles of Intermediate 6 (Example 39 of WO2021/181122A1) were assessed in male Sprague-Dawley rats via intravenous (IV) delivery. Pharmacokinetic data (mean values±standard deviation) for Intermediate 6 (Example 39 of WO2021/181122A1) are detailed in Table 7.
For pharmacokinetic analysis, groups of three male Sprague-Dawley rats, ranging in weight between 200 and 230 g, were administered a single dose of Intermediate 6 (Example 39 of WO2021/181122A1) via IV, using the dose, dose volume and vehicle specified in Table 7. Following dosing, blood samples were taken at several time points (pre-dose, 2 min, 5 min, 15 min, 30 min, 1 h, 3 h, 6 h, 12 h and 24 h for IV) via serial tail vein bleeds, and centrifuged to separate plasma for analysis by LC-MS/MS. WinNonlin v8.2 statistics software (Pharsight Corporation, California, USA) was used to generate pharmacokinetic parameters using non-compartmental analysis.

Kp uu at 10 min [4]: 0.42 ± 0.08
EC50 (human GPR52): 6.31 nM
clearance (Rat IV pharmacokinetics): 8.8 ± 1.1 mL/min/kg
SMILES: Cc1nn(-c2cc(Cc3cc(F)cc(C(F)(F)F)c3)ccn2)c(CO)c1C(N)=O [Intermediate 6, 1-(4-(3-fluoro-5-(trifluoromethyl)benzyl)pyridin-2-yl)-5-(hydroxymethyl)-3-methyl-1H-pyrazole-4-carboxamide]
effect on caffeine-induced hyperlocomotor response [5]: dose-dependent reduction of the caffeine-induced hyperlocomotor response, reaching statistical significance at 1 and 3 mg/kg

EC50 (human GPR52): 10 nM
SMILES: CNC(=O)c1c(C)nn(-c2cc(Cc3cc(F)cc(C(F)(F)F)c3)ccn2)c1CO [Intermediate 12, 1-(4-(3-fluoro-5-(trifluoromethyl)benzyl)pyridin-2-yl)-5-(hydroxymethyl)-N,3-dimethyl-1H-pyrazole-4-carboxamide]

More lines, now with the values behind:

SMILES: Cc1nn(-c2cc(Cc3cc(F)cc(C(F)(F)F)c3)ccn2)c(COP(=O)(O)O)c1C(N)=O [Example 2]
Plasma concentrations of Example 2 [1]: < 1 ng/mL
solubility at 4 h ([2]; SGF without enzyme, simulated gastric fluid, SGF, pH 1.2, 25° C.): 13.1 µM (≈ 6.38 µg/mL)
solubility at 4 h ([2]; fassgf or other biorelevant, Blank FaSSIF, pH 6.5, 25° C.): 1890 µM (≈ 922 µg/mL)
solubility at 4 h ([2]; FaSSIF, pH 6.5, 25° C.): 1830 µM (≈ 894 µg/mL)
Plasma concentrations of Example 2 [3]: < 1 ng/mL

SMILES: Cc1nn(-c2cc(Cc3cc(F)cc(C(F)(F)F)c3)ccn2)c(CO)c1C(=O)NCCO [Intermediate 7, 1-(4-(3-fluoro-5-(trifluoromethyl)benzyl)pyridin-2-yl)-N-(2-hydroxyethyl)-5-(hydroxymethyl)-3-methyl-1H-pyrazole-4-carboxamide]
EC50 (human GPR52): 2.51 nM

SMILES: Cc1nn(-c2ccnc(Cc3cc(F)cc(C(F)(F)F)c3)c2)c(CO)c1C(N)=O [Intermediate 10, 1-(2-(3-fluoro-5-(trifluoromethyl)benzyl)pyridin-4-yl)-5-(hydroxymethyl)-3-methyl-1H-pyrazole-4-carboxamide]
EC50 (human GPR52): 31.6 nM

SMILES: Cc1nn(-c2ccnc(Cc3cc(F)cc(C(F)(F)F)c3)c2)c(CO)c1C(=O)NCCO [Intermediate 11, 1-(2-(3-fluoro-5-(trifluoromethyl)benzyl)pyridin-4-yl)-N-(2-hydroxyethyl)-5-(hydroxymethyl)-3-methyl-1H-pyrazole-4-carboxamide]
EC50 (human GPR52): 31.6 nM

SMILES: Cc1nn(-c2cc(Cc3cc(F)cc(C(F)F)c3)ccn2)c(CO)c1C(N)=O [Intermediate 16, 1-(4-(3-(difluoromethyl)-5-fluorobenzyl)pyridin-2-yl)-5-(hydroxymethyl)-3-methyl-1H-pyrazole-4-carboxamide]
EC50 (human GPR52): 3.98 nM

Reference: patent US20240376070A1, “GPR52 MODULATOR COMPOUNDS” (NXERA PHARMA UK LIMITED, priority 2021, published 2024)
